Test results from patent US8735361B2, “C1ORF59 peptides and vaccines including the same” (Oncotherapy Science, Inc., priority 2008, dated 2014).

Assays:
peptide-pulsed A24 LCL [1] = assay: In vitro CTL induction with HLA-A*2402 restricted peptides, IFN-gamma ELISPOT assay; format: cell-based, human; conditions: CTLs from HLA-A*2402 positive donor stimulated with peptide-pulsed DCs; compared to control wells
From the text: Monocyte-derived dendritic cells (DCs) were used as antigen-presenting cells (APCs) to induce cytotoxic T lymphocyte (CTL) responses against peptides presented on human leukocyte antigen (HLA). DCs were generated in vitro as described elsewhere (Nakahara S et al., Cancer Res 2003 Jul. 15, 63(14): 4112-8). Specifically, peripheral blood mononuclear cells (PBMCs) isolated from a normal volunteer (HLA-A*2402 positive) by Ficoll-Plaque (Pharmacia) solution were separated by adherence to a plastic tissue culture dish (Becton Dickinson) so as to enrich them as the monocyte fraction. The monocyte-enriched population was cultured in the presence of 1000 U/ml of granulocyte-macrophage colony-stimulating factor (GM-CSF) (R&D System) and 1000 U/ml of interleukin (IL)-4 (R&D System) in AIM-V Medium (Invitrogen) containing 2% heat-inactivated autologous serum (AS). After 7 days of culture, the cytokine-induced DCs were pulsed with 20 micro gram/ml of each of the synthesized peptides in the presence of 3 micro gram/ml of beta 2-microglobulin for 3 hrs at 37 degrees C. in AIM-V Medium. The generated cells appeared to express DC-associated molecules, such as CD80, CD83, CD86 and HLA class II, on their cell surfaces (data not shown). These peptide-pulsed DCs were then inactivated by X-irradiated (20 Gy) and mixed at a 1:20 ratio with autologous CD8+ T cells, obtained by positive selection with CD8 Positive Isolation Kit (Dynal). These cultures were set up in 48-well plates (Corning); each well contained 1.5×10^4 peptide-pulsed DCs, 3×10^5 CD8+ T cells and 10 ng/ml of IL-7 (R&D System) in 0.5 ml of AIM-V/2% AS medium. Three days later, these cultures were supplemented with IL-2 (CHIRON) to a final concentration of 20 IU/ml. On day 7 and 14, the T cells were further stimulated with the autologous peptide-pulsed DCs. The DCs were prepared each time by the same way described above. CTL was tested against peptide-pulsed A24 LCL or T2 cells after the 3rd round of peptide stimulation on day 21 (Tanaka H et al., Br J Cancer 2001 Jan. 5, 84(1): 94-9; Umano Y et al., Br J Cancer 2001 Apr. 20, 84(8): 1052-7; Uchida N et al., Clin Cancer Res 2004 Dec. 15, 10(24): 8577-86; Suda T et al., Cancer Sci 2006 May, 97(5): 411-9; Watanabe T et al., Cancer Sci 2005 August, 96(8): 498-506)
(§1) To examine specific CTL activity, interferon (IFN)-gamma enzyme-linked immunospot (ELISPOT) assay and IFN-gamma enzyme-linked immunosorbent assay (ELISA) were performed. Specifically, peptide-pulsed A24 LCL (1×10^4/well) was prepared as stimulator cells. Cultured cells in 48 wells were used as responder cells. IFN-gamma ELISPOT assay and IFN-gamma ELISA assay were performed under manufacture procedure.

peptide-pulsed A24 LCL [2] = assay: IFN-gamma ELISA assay of expanded CTL lines (HLA-A*2402); format: cell-based, human; conditions: target cells pulsed with corresponding peptide compared to target cells without peptide pulse
Procedure: CTLs were expanded in culture using the method similar to the one described by Riddell et al. (Walter E A et al., N Engl J Med 1995 Oct. 19, 333(16): 1038-44; Riddell S R et al., Nat Med 1996 February, 2(2): 216-23). A total of 5×10^4 CTLs were suspended in 25 ml of AIM-V/5% AS medium with 2 kinds of human B-lymphoblastoid cell lines, inactivated by MMC, in the presence of 40 ng/ml of anti-CD3 monoclonal antibody (Pharmingen). One day after initiating the cultures, 120 IU/ml of IL-2 were added to the cultures. The cultures were fed with fresh AIM-V/5% AS medium containing 30 IU/ml of IL-2 on days 5, 8 and 11 (Tanaka H et al., Br J Cancer 2001 Jan. 5, 84(1): 94-9; Umano Y et al., Br J Cancer 2001 Apr. 20, 84(8): 1052-7; Uchida N et al., Clin Cancer Res 2004 Dec. 15, 10(24): 8577-86; Suda T et al., Cancer Sci 2006 May, 97(5): 411-9; Watanabe T et al., Cancer Sci 2005 August, 96(8): 498-506).
as §1

peptide-pulsed A24 LCL [3] = assay: IFN-gamma ELISA assay of CTL clones established by limiting dilution (HLA-A*2402); format: cell-based, human; conditions: CTL clones against target cells pulsed with peptide
Procedure: The dilutions were made to have 0.3, 1, and 3 CTLs/well in 96 round-bottomed micro titer plate (Nalge Nunc International). CTLs were cultured with 1×10^4 cells/well of 2 kinds of human B-lymphoblastoid cell lines, 30 ng/ml of anti-CD3 antibody, and 125 U/ml of IL-2 in a total of 150 microlitter/well of AIM-V Medium containing 5% AS. 50 microlitter/well of IL-2 were added to the medium 10 days later so to reach a final concentration of 125 U/ml IL-2. CTL activity was tested on the 14th day, and CTL clones were expanded using the same method as described above (Uchida N et al., Clin Cancer Res 2004 Dec. 15, 10(24): 8577-86; Suda T et al., Cancer Sci 2006 May, 97(5): 411-9; Watanabe T et al., Cancer Sci 2005 August, 96(8): 498-506).
as §1

[4] = test system: COS7 cells transfected with C1orf59 and HLA-A*2402; assay: Specific CTL activity against target cells exogenously expressing C1orf59 and HLA-A*2402; format: cell-based, African green monkey
From the text: The cDNA encoding an open reading frame of target genes or HLA-A24 was amplified by PCR. The PCR-amplified product was cloned into pCAGGS vector. The plasmids were transfected into COS7, which is the target genes and HLA-A24-null cell line, using lipofectamine 2000 (Invitrogen) according to the manufacturer's recommended procedures. After 2 days from transfection, the transfected cells were harvested with versene (Invitrogen) and used as the target cells (5×10^4 cells/well) for CTL activity assay.
The established CTL lines raised against these peptides were examined for their ability to recognize target cells that express C1orf59 and HLA-A*2402 molecule. Specific CTL activity against COS7 cells which transfected with both the full length of C1orf59 and HLA-A*2402 molecule gene (a specific model for the target cells that express C1orf59 and HLA-A*2402 gene) was tested using the CTL lines raised by corresponding peptide as the effecter cells. COS7 cells transfected with either full length of C1orf59 genes or HLA-A*2402 were prepared as control.

GYCTQIGIF [SEQ ID NO: 26]
Peptide specific CTL activity, IFN-gamma production by ELISPOT (peptide-pulsed A24 LCL [1]): potent IFN-gamma production
IFN-gamma production of CTL lines by ELISA (peptide-pulsed A24 LCL [2]): potent IFN-gamma production
IFN-gamma production of CTL clones by ELISA (peptide-pulsed A24 LCL [3]): Potent IFN-gamma productions
Specific CTL activity against control COS7 cells ([4]; COS7 transfected with either full length C1orf59 or HLA-A*2402 alone): no significant specific CTL activity
Specific CTL activity against COS7 cells expressing both C1orf59 and HLA-A*2402 ([4]; CTLs raised by the peptide as effector cells): potent CTL activity
